Data as given in US12583851B2, “Heteroaryl-substituted pyrazine derivatives as pesticides” (Elanco Animal Health GmbH, priority 2019, dated 2026).

Assays:
Assay type in all cases: in vivo
[1] = system: adult engorged female ticks (Rhipicephalus microplus); experiment: Rhipicephalus (Boophilus) microplus injection test; conditions: 168 h, 4 μg/animal, egg deposition after 7 days, read-out: efficacy (infertile eggs)
Experimental: Rhipicephalus (Boophilus) microplus—Injection Test
(§1) Solvent: dimethyl sulfoxide
To produce a suitable preparation of active compound, 10 mg of active compound are dissolved in 0.5 mL solvent, and the concentrate is diluted with solvent to the desired concentration.
Five adult engorged female ticks (Rhipicephalus microplus) are injected with 1 μL compound solution into the abdomen. The ticks are transferred into replica plates and incubated in a climate chamber.
After 7 days egg deposition of fertile eggs is monitored. Eggs where fertility is not visible are stored in a climate chamber till hatching after about 42 days. An efficacy of 100% means all eggs are infertile; 0% means all eggs are fertile.

[2] = system: Rhipicephalus (Boophilus) microplus larvae (strain Parkhurst, resistant against synthetic pyrethroids); experiment: Rhipicephalus (Boophilus) microplus in-vitro contact test, larval cattle tick; conditions: after 48 hours, read-out: efficacy (larvae dead or moribund); for pest or weed control at 1 µg/cm2, 100 g/ha: 1 μg/cm^2 (=100 g/ha); for pest or weed control at 5 µg/cm2, 500 g/ha: 5 μg/cm^2 (=500 g/ha)
Summary of the method: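 Acetone solutions were coated onto glass tube walls (900 ppm gives 5 μg/cm²); after drying, 20–50 pyrethroid-resistant Parkhurst larvae added and held at 27 °C, 85% RH. At 48 h, efficacy as % larvae dead or moribund, judged by loss of negative geotaxis.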

[3] = system: larvae of the banded cucumber beetle (Diabrotica balteata); experiment: Diabrotica balteata spray test; conditions: 168 h, after 7 days, read-out: efficacy (seedling growth); for pest or weed control at 6.4 µg/disc, 20 g/ha: 20 g/ha (=6.4 μg/well); for pest or weed control at 32 µg/disc, 100 g/ha: 100 g/ha (=32 μg/well)
Summary of the method: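 Germinated wheat seedlings (5 per well, on agar) sprayed with compound in acetone/DMF with emulsifier-containing water, then infested with 10–20 Diabrotica balteata larvae. Efficacy (%) scored after 7 days from seedling growth: 100% = growth as untreated uninfested control, 0% = no seedlings grown.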

[4] = system: adult unfed cat fleas (Ctenocephalides felis); experiment: Ctenocephalides felis oral test; conditions: 48 h, 100 ppm in citrated cattle blood, after 2 days
Experimental: Ctenocephalides felis—Oral Test
as §1
To produce a suitable preparation of active compound, 10 mg of active compound are dissolved in 0.5 mL solvent, and the concentrate is diluted with citrated cattle blood to the desired concentration.
Approximately 20 adult unfed cat fleas (Ctenocephalides felis) are placed in a flea chamber whose top and bottom is covered with gauze. A chamber whose bottom is sealed with parafilm, is filled with the blood-compound solution and placed on top of the flea chamber, so that the fleas can suck the blood. The blood chamber is heated to 37° C. whereas the flea chamber is kept at room temperature.
After 2 days mortality in % is determined. 100% means all the fleas have been killed; 0% means none of the fleas have been killed.

[5] = system: fall armyworm larvae (Spodoptera frugiperda); experiment: Spodoptera frugiperda spray test; conditions: 168 h, maize leaf sections, after 7 days
Summary of the method: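 Compound dissolved in acetone/dimethylformamide, diluted in water containing 1000 ppm alkylarylpolyglycol ether emulsifier and sprayed onto maize leaf sections. Dried sections were infested with larvae; % mortality scored after 7 days (100% = all caterpillars killed, 0% = none).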

[6] = system: adult brown dog ticks (Rhipicephalus sanguineus); experiment: Rhipicephalus sanguineus in-vitro contact test, adult brown dog ticks; conditions: 48 h, after 48 hours, read-out: efficacy (ticks dead or moribund); for pest or weed control at 5 µg/cm2, 500 g/ha: 5 μg/cm^2 (=500 g/ha); for pest or weed control at 1 µg/cm2, 100 g/ha: 1 μg/cm^2 (=100 g/ha)
Experimental: Rhipicephalus sanguineus—In-Vitro Contact Tests with Adult Brown Dog Ticks
(§2) 9 mg compound is solved in 1 mL acetone and diluted with acetone to the desired concentration. 250 of the test solution is filled in 25 mL glass test tubes and homogeneously distributed on the inner walls by rotation and tilting on a shaking device (2 h at 30 rpm). With a compound concentration of 900 ppm, an inner surface of 44.7 cm^2 and a homogeneous distribution, a dose of 5 μg/cm^2 is achieved.
(§3) After the solvent has evaporated, each test tube is filled with 5-10 adult brown dog ticks (Rhipicephalus sanguineus), closed with a perforated lid and incubated in a lying position at room temperature and relative humidity. After 48 hours efficacy is determined. The ticks are patted on the ground of the tubes and are incubated on a heating plate at 45-50° C. for at most 5 minutes Immotile or uncoordinated moving ticks, which are not able to escape the heat by climbing upwards, are marked as dead or moribund.
An efficacy of 100% means all ticks are dead or moribund; 0% means no ticks are dead or moribund.

[7] = system: larvae of the southern green stink bug (Nezara viridula); experiment: Nezara viridula spray test; conditions: 96 h, 500 g/ha, barley plants, after 4 days
Experimental: Nezara viridula—Spray Test
Solvent: 78.0 parts by weight of acetone • • 1.5 parts by weight of dimethylformamide
(§4) Emulsifier: alkylarylpolyglycol ether
(§5) To produce a suitable preparation of active compound, 1 part by weight of active compound is mixed with the stated amount of solvent, and the concentrate is diluted with water, containing an emulsifier concentration of 1000 ppm, to the desired concentration. Further test concentrations are prepared by dilution with emulsifier containing water.
Barley plants (Hordeum vulgare) infested with larvae of the southern green stink bug (Nezara viridula) are sprayed with a test solution containing the desired concentration of the active ingredient.
After 4 days mortality in % is determined. 100% means all the stink bugs have been killed; 0% means none of the stink bugs have been killed.

[8] = system: adult cat fleas (Ctenocephalides felis); experiment: Ctenocephalides felis in-vitro contact test, adult cat flea; conditions: after 48 hours, read-out: efficacy (fleas dead or moribund); for pest or weed control at 1 µg/cm2, 100 g/ha: 1 μg/cm^2 (=100 g/ha); for pest or weed control at 5 µg/cm2, 500 g/ha: 5 μg/cm^2 (=500 g/ha)
Experimental: Ctenocephalides felis—In-Vitro Contact Tests Adult Cat Flea
as §2, with “1 ml” for “1 mL”, “250 μL” for “250”
as §3, with “cat fleas (Ctenocephalides felis),” for “brown dog ticks (Rhipicephalus sanguineus),”, “fleas” for “ticks”, “fleas,” for “ticks,”
An efficacy of 100% means all fleas are dead or moribund; 0% means no fleas are dead or moribund.

[9] = system: green peach aphid (Myzus persicae); experiment: Myzus persicae spray test; conditions: foliar, 120 h, Chinese cabbage leaf disks, after 5 days
Experimental: Myzus persicae—Spray Test
Solvent: 78.0 parts by weight acetone • 1.5 parts by weight dimethylformamide
as §4
as §5, with “solvents” for “solvent,”, “and” for “and the concentrate”
Chinese cabbage (Brassica pekinensis) leaf disks infected with all instars of the green peach aphid (Myzus persicae), are sprayed with a preparation of the active ingredient of the desired concentration.
After 5 days mortality in % is determined. 100% means all aphids have been killed and 0% means none of the aphids have been killed.

## CC(NC(=O)c1cc(Cl)cc(C(F)(F)F)c1)c1nccnc1-c1ccc(Cl)cn1 (stereo not shown) [Example I-24]
[1]
  pest or weed control at 0.004 mg: 100%
[2]
  pest or weed control at 1 µg/cm2, 100 g/ha: 90%
  pest or weed control at 5 µg/cm2, 500 g/ha: 90%
[3]
  pest or weed control at 6.4 µg/disc, 20 g/ha: 100%
  pest or weed control at 32 µg/disc, 100 g/ha: 100%
[4]
  mortality at 100 ppm: 100%
[5]
  mortality at 100 g/ha: 100%

## CC(NC(=O)c1cc(Cl)cc(S(C)(=O)=O)c1)c1nccnc1-n1cc(C(F)(F)F)cn1 (racemic) [Example I-93, (rac)-3-Chloro-5-(methanesulfonyl)-N-[1-{3-[4-(trifluoromethyl)-1H-pyrazol-1-yl]pyrazin-2-yl}ethyl]benzamide]
[2]
  pest or weed control at 1 µg/cm2, 100 g/ha: 100%
  pest or weed control at 5 µg/cm2, 500 g/ha: 100%
[3]
  pest or weed control at 6.4 µg/disc, 20 g/ha: 100%
  pest or weed control at 32 µg/disc, 100 g/ha: 100%
[6]
  pest or weed control at 5 µg/cm2, 500 g/ha: 80%
[7]
  mortality at 500 g/ha: 100%
[5]
  mortality at 100 g/ha: 100%

## CC(NC(=O)c1cc(Cl)cc(S(C)(=O)=O)c1)c1nccnc1-n1cc(Cl)cn1 (racemic) [Example I-99, (rac)-3-Chloro-N-{1-[3-(4-chloro-1H-pyrazol-1-yl)pyrazin-2-yl]ethyl}-5-(methanesulfonyl)benzamide]
[7]
  mortality at 500 g/ha: 100%

## CC(NC(=O)c1cc(C(F)(F)F)cc(C(F)(F)F)c1)c1nccnc1-c1ncc(C(=O)N(C)CC(F)(F)F)s1 (racemic) [Example I-65, (rac)-2-(3-{1-[3,5-Bis(trifluoromethyl)benzamido]ethyl}pyrazin-2-yl)-N-methyl-N-(2,2,2-trifluoroethyl)-1,3-thiazole-5-carboxamide]
[1]
  pest or weed control at 0.004 mg: 80%
[8]
  pest or weed control at 1 µg/cm2, 100 g/ha: 100%
  pest or weed control at 5 µg/cm2, 500 g/ha: 100%
[2]
  pest or weed control at 1 µg/cm2, 100 g/ha: 100%
  pest or weed control at 5 µg/cm2, 500 g/ha: 100%
[6]
  pest or weed control at 5 µg/cm2, 500 g/ha: 80%
[4]
  mortality at 100 ppm: 80%
[5]
  mortality at 100 g/ha: 100%

## CCN(C)C(=O)c1cnc(-c2ncc(C)nc2[C@H](C)NC(=O)c2cc(C(F)(F)F)cc(C(F)(F)F)c2)s1 [Example I-155, (+)-2-(3-{(1S)-1-[3,5-Bis(trifluoromethyl)benzamido]ethyl}-5-methylpyrazin-2-yl)-N-ethyl-N-methyl-1,3-thiazole-5-carboxamide]
[3]
  pest or weed control at 6.4 µg/disc, 20 g/ha: 100%
  pest or weed control at 32 µg/disc, 100 g/ha: 100%
[7]
  mortality at 500 g/ha: 100%
[5]
  mortality at 100 g/ha: 100%

## CCN(C)C(=O)c1cnc(-c2nccnc2[C@@H](C)NC(=O)c2cc(C(F)(F)F)cc(C(F)(F)F)c2)s1 [Example I-84, 2-(3-{(1R)-1-[3,5-bis(trifluoromethyl)benzamido]ethyl}pyrazin-2-yl)-N-ethyl-N-methyl-1,3-thiazole-5-carboxamide]
[9]
  mortality at 100 g/ha: 90%

## CC(NC(=O)c1cc(C(F)(F)F)cc(C(F)(F)F)c1)c1nccnc1-c1ccccn1 (stereo not shown) [Example I-13]
[1]
  pest or weed control at 0.004 mg: 80%
[2]
  pest or weed control at 1 µg/cm2, 100 g/ha: 100%
  pest or weed control at 5 µg/cm2, 500 g/ha: 100%
[3]
  pest or weed control at 6.4 µg/disc, 20 g/ha: 100%
  pest or weed control at 32 µg/disc, 100 g/ha: 80%
[4]
  mortality at 100 ppm: 90%
[5]
  mortality at 100 g/ha: 100%

## CC(NC(=O)c1cc(C(F)(F)F)cc(C(F)(F)F)c1)c1nccnc1-n1cc(C(=O)N(C)CC2CC2)cn1 (racemic) [Example I-131, (rac)-1-(3-{1-[3,5-Bis(trifluoromethyl)benzamido]ethyl}pyrazin-2-yl)-N-(cyclopropylmethyl)-N-methyl-1H-pyrazole-4-carboxamide]
[2]
  pest or weed control at 1 µg/cm2, 100 g/ha: 100%
  pest or weed control at 5 µg/cm2, 500 g/ha: 100%
[3]
  pest or weed control at 6.4 µg/disc, 20 g/ha: 100%
  pest or weed control at 32 µg/disc, 100 g/ha: 100%
[6]
  pest or weed control at 1 µg/cm2, 100 g/ha: 80%
  pest or weed control at 5 µg/cm2, 500 g/ha: 80%
[7]
  mortality at 500 g/ha: 100%
[5]
  mortality at 100 g/ha: 100%

## CC(NC(=O)c1cc(Cl)cc(OC(F)(F)F)c1)c1nccnc1-n1cc(C(=O)N(C)CC2CC2)cn1 (racemic) [Example I-133, (rac)-1-(3-{1-[3-Chloro-5-(trifluoromethoxy)benzamido]ethyl}pyrazin-2-yl)-N-(cyclopropylmethyl)-N-methyl-1H-pyrazole-4-carboxamide]
[8]
  pest or weed control at 1 µg/cm2, 100 g/ha: 100%
  pest or weed control at 5 µg/cm2, 500 g/ha: 100%
[2]
  pest or weed control at 1 µg/cm2, 100 g/ha: 100%
  pest or weed control at 5 µg/cm2, 500 g/ha: 100%
[3]
  pest or weed control at 6.4 µg/disc, 20 g/ha: 100%
  pest or weed control at 32 µg/disc, 100 g/ha: 100%
[6]
  pest or weed control at 1 µg/cm2, 100 g/ha: 100%
  pest or weed control at 5 µg/cm2, 500 g/ha: 100%
[7]
  mortality at 500 g/ha: 100%
[5]
  mortality at 100 g/ha: 100%

## CC(NC(=O)c1cncc(C(F)(F)F)c1)c1nccnc1-c1nccs1 (racemic) [Example I-2, (rac)-N-(1-(3-(Thiazol-2-yl)pyrazin-2-yl)ethyl)-5-(trifluoromethyl)nicotinamide]
[1]
  pest or weed control at 0.004 mg: 100%
[6]
  pest or weed control at 5 µg/cm2, 500 g/ha: 100%
[4]
  mortality at 100 ppm: 90%

## CC(NC(=O)c1cc(C(F)(F)F)cc(C(F)(F)F)c1)c1nccnc1-n1cc(C(=O)N(C)C2CC2)cn1 (racemic) [Example I-139, (rac)-1-(3-{1-[3,5-Bis(trifluoromethyl)benzamido]ethyl}pyrazin-2-yl)-N-cyclopropyl-N-methyl-1H-pyrazole-4-carboxamide]
[2]
  pest or weed control at 1 µg/cm2, 100 g/ha: 100%
  pest or weed control at 5 µg/cm2, 500 g/ha: 100%
[3]
  pest or weed control at 32 µg/disc, 100 g/ha: 80%
[7]
  mortality at 500 g/ha: 100%
[5]
  mortality at 100 g/ha: 100%
